Laboratory results taken from patent US20250073250A1, “Improved synthesis of lysine acetylsalicylate - Glycine particles” (AspiAir GmbH, priority 2022, published 2025).
Where two headings read alike, the source gives them in different places.

How the values were obtained:
Assay type in all cases: physicochemical
[1] = Stability in aqueous solution (salicylic acid content by HPLC)
Method: Due to its instability in water, LASAG is commonly used as a dry powder, and specifically as a dry powder for reconstitution; in other words, an aqueous solution thereof is not necessarily meant to be stored for extended periods of time but instead is prepared freshly prior to each use. Stability in aqueous solution is nonetheless an important feature for users, for instance, in order to know how long a prepared solution can still be used; a content of ≤1.5 wt.-% of the LASAG-degradant salicylic acid (SA) in a solution is typically considered acceptable. […] In between sample time points, the vials were kept closed.
The following time points were measured:
For the HPLC-analysis, an Agilent Zorbax SB-C18 column was used (4.6×250 mm, 5 μm) at 22° C. with isocratic elution over 40 minutes at an eluent flow rate of 1 mL/min. The eluent was an 80 mM ammonium acetate/acetonitrile solution (60:40) prepared by dissolving 4 g ammonium acetate in 600 mL HPLC-grade water, adjusting the pH to 2.0 using trifluoroacetic acid, then adding 400 mL acetonitrile and homogenising the mixture. The injected sample volume was 10 μL. A UV-detector was used at 237 nm to analyse the samples.

[2] = Particle size distribution (PSD) by laser diffraction; details: for Dv10 / Dv50 / Dv90: volume-based
Method: Unless mentioned otherwise, the particle size values provided herein (either measured or calculated/derived from measured values) refer to particle diameters and were determined using a laser diffraction device, and its related evaluation software (here, for instance, a Mastersizer® device from Malvern Instruments Ltd.); all laser diffraction measurements complied with ISO-13320 standards. Where referring to the particle size measurements, all percentages provided herein (such as ‘at least 90% of the particles have a particle size of . . . ’) are to be understood as volume-percentages. […] Where available, three or more batches of the substances were tested, and mean values of their PSD-data obtained.

[3] = Specific surface area by BET gas adsorption
From the text: Without wishing to be bound by theory, it seems possible that not only the smaller median particle size of the LASAG according to the present invention is responsible for its faster dissolution but also its higher specific surface area.

[4] = Manual dissolution of 1000 mg LASAG in 8 mL glass vial with 5 mL water for injection; details: 1000 mg in 5 mL water for injection, 8 mL vial
From the text: As mentioned above, by controlling the particle size of the LASAG, it is possible to control parameters such as the dissolution speed (also referred to as dissolution rate). […] Special precautionary measures” that the reconstituted solution should preferably be filtered with a 5 μm filter before its application, as such indicating potential issues with (quick) dissolution. Especially, when considering that LASAG is inter alia employed in the treatment of myocardial infarction, i.e., an acute health crisis where time is of critical importance, a faster, more readily occurring dissolution of the LASAG used, can represent a clinically relevant advantage.
An amount of 5 mL water for injection purposes was injected through the sealing stopper over the course of about 25-30 seconds, the needle then removed, and the vial shaken, or swirled, manually until complete dissolution (no residual solids visible to the human eye). The same test was performed with a commercially available Aspirin® i.v. vial. Each test was repeated at least 3 times per type of LASAG. This test and the resulting dissolution behaviour are considered similar to what is likely to be observed by, for instance, paramedics in an ambulance or medical staff in hospitals upon dissolving the dry LASAG particles in pre-filled vials by adding water for injection purposes and shaking manually. […]

[5] = Dissolution on horizontal shaker; details: 1000 mg in 5 mL water, 25 mL test tube, horizontal shaker 1055 rpm, 5 s intervals
Method: An amount of 5 mL water for injection purposes was added, and the vial shaken in intervals of 5 seconds at 1055 rpm until complete dissolution (no residual solids visible to the human eye). The same test was performed with a commercially available Aspirin® i.v. vial. Each test was repeated at least 3 times per type of LASAG.

[6] = Glass adhesion in 8 mL glass vial (gravimetric)
Method: After opening the vial and emptying out any non-adhered powder by simple gravitational spill, the vial with the adhered particles inside is weighed again, to thereby gravimetrically determine the weight of the adhered particles. Low glass adhesion facilitates handling of the vials (e.g., better visibility into the vial), and ensures that the complete intended dose is dissolved upon adding water to the vial (rather than, for instance, some material sticking to the upper end of the vial, near the stopper, where the water, that is added into the vial via injection through a needle, may not reach). […] On at least five consecutive days, the vial was manually moved, or rotated, once daily around all its axes to properly disperse the LASAG particles and allow them to coat the inner glass surface. After seven days, the vials were emptied by simply turning them upside down and allowing all non-adhering powder to spill out, or fall out, under gravity, followed by firmly tapping the vial five times onto a solid surface. No noteworthy adhesion to the stopper was observed. The weight of the remainder, i.e., the weight of the LASAG powder still sticking to the glass wall inside the vial after emptying, was determined gravimetrically. The same test was performed with a commercially available Aspirin® i.v. vial.

[7] = Storage stability in dry state in aluminium-lined polyethylene bags
Method: At 5±3° C. […] After continuation of the cold storage stability study for a further 12 months, this stability finding is reconfirmed, with the extrapolated value being increased to from 70.9±3.5 months to 200±5 months.

[8] = listed as LASAG 2 (batch in clinical study)

Structure (SMILES): CC(=O)Oc1ccccc1C(=O)O.NCC(=O)O.NCCCCC(N)C(=O)O (racemic) [LASAG 2, lysine acetylsalicylate⋅glycine]
- time at which solution exceeds 1.5 wt.-% salicylic acid content ([1]; 1.0 g in 5.0 mL water, room temperature (20±5° C.)): about 1 h
- changes in colour or clarity of solution ([1]; over time range and storage conditions tested): None
- 1st max. of particle size distribution [2]: 20.4 μm
- 1st max. of particle size distribution [2, 8]: 18.7 μm
- Dv10 [2]: 4.2 μm
- Dv50 [2]: 18.4 μm
- Dv90 [2]: 53.3 μm
- Dv10 [2, 8]: 3.8 μm
- Dv50 [2, 8]: 16.3 μm
- Dv90 [2, 8]: 40.4 μm
- Dv90 ([2]; listed as LASAG of the present invention): about 50 μm
- specific surface area [3]: 2.4±0.1 m^2/g
- shaking/swirling motions until complete dissolution ([4]; manual): 3-5
- time from removing the needle until complete dissolution ([4]; manual shaking/swirling): 15 to 30 s
- time until complete dissolution [5]: 18.3 ± 2.9 s
- weight remaining in the vial (adhering to glass) ([6]; 1000 mg in 8 mL vial, after seven days, emptied and tapped): 5.12 ± 0.35 mg
- glass adhesion per inner glass surface ([6]; inner glass surface approx. 29 cm^2): about 0.177 mg/cm^2
- Time until reaching salicylic acid threshold of 1.5% ([7]; 5±3° C., extrapolated after continuation of study for a further 12 months): 200±5 months
- Time until reaching salicylic acid threshold of 1.5% ([7]; 5 ± 3° C., n = 3, extrapolated, listed as LASAG according to present invention): 70.9 ± 3.5 months
- Time until reaching salicylic acid threshold of 1.5% ([7]; 25 ± 2° C. 60 ± 5% r.h., n = 3): 10.3 ± 2.0 months
- Time until reaching salicylic acid threshold of 1.5% ([7]; 30 ± 2° C. 65 ± 5% r.h., n = 3): 3.5 ± 1.2 months
- Time until reaching salicylic acid threshold of 1.5% ([7]; 40 ± 2° C. 75 ± 5% r.h., n = 3): 0.2 ± 0.0 months
